Results reported in patent US8119805B2, “Substituted disulfonamide compounds” (Gruenenthal GmbH, priority 2008, dated 2012).
Structures can show the parent of a compound that is named as a salt.

Key:
[1] = target: T1, human B1R receptor (hB1R) (Homo sapiens, UniProt P46663); test: Functional investigation on the bradykinin 1 receptor (B1R), FLIPR Ca2+ assay, hB1R cells; type: cell-based; conditions: test substance 10 μM; CHO K1 cells transfected with human B1R gene; Fluo-4 Ca2+ signal; agonist Lys-Des-Arg9-bradykinin at EC80; % of maximum achievable inhibition; read-out: B1R antagonism, human [10 μM] % inhibition
T1 construct: expressed in transfected cells; host or cells: CHO K1 cells
T1 sequence (P46663 1-353): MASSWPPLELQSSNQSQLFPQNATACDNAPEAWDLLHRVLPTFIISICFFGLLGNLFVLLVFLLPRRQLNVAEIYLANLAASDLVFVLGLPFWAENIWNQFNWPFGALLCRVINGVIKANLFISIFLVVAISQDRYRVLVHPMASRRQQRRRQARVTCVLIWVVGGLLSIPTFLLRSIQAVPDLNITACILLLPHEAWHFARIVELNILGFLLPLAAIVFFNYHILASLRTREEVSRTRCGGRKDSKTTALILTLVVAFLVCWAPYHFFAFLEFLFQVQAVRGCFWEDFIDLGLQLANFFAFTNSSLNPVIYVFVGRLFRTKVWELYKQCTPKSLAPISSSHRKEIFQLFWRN
In short: (§1)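 CHO K1 cells stably expressing human or rat B1R, Fluo-4 loaded, read by FLIPR (λex 488, λem 540 nm). Test compound (10 μM) first gave % activation against Lys-Des-[MUT]-bradykinin ≥50 nM (hB1R) or Des-[MUT]-bradykinin 10 μM (rB1R). After 10–20 min, agonist at EC80 was added; % inhibition or IC50 from concentration series, n=2–3, N≥2.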

[2] = target: T2, B1R receptor of the rat (rB1R) (Rattus norvegicus, UniProt P97583); test: Functional investigation on the bradykinin 1 receptor (B1R), FLIPR Ca2+ assay, rB1R cells; type: cell-based; conditions: test substance 10 μM; CHO K1 cells transfected with rat B1R gene; Fluo-4 Ca2+ signal; agonist Des-Arg9-bradykinin at EC80; % of maximum achievable inhibition; read-out: B1R antagonism, rat [10 μM] % inhibition
T2 construct: expressed in transfected cells; host or cells: CHO K1 cells
T2 sequence (P97583 1-337): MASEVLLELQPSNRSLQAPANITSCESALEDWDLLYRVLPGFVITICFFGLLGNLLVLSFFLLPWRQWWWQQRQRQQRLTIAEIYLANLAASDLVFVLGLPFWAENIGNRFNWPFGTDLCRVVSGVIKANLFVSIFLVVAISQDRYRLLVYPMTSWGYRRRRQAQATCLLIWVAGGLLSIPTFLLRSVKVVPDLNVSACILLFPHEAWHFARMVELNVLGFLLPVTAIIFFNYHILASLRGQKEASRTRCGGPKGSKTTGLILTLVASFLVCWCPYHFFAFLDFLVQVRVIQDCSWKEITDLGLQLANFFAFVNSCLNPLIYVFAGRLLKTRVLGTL
In short: as §1

Compound | inhibition at 10 µM [1] [%] | inhibition at 10 µM [2] [%]
COc1cc(C)c(S(=O)(=O)N2CCCC(CCS(=O)(=O)N3CCC(CCN4CCCC4)CC3)C2)c(C)c1C (centres unmarked) [Example 39, 1-(4-Methoxy-2,3,6-trimethylphenylsulfonyl)-3-(2-(4-(2-(pyrrolidin-1-yl)ethyl)piperidin-1-ylsulfonyl)ethyl)piperidine hydrochloride] | 44 | 27
O=S(=O)(CCC[C@@H]1CCCN1S(=O)(=O)c1cccc2ccccc12)N1CCC2(CCN(c3ccncc3)CC2)CC1 [Example 67, 3-(3-((S)-1-(Naphthalen-1-ylsulfonyl)pyrrolidin-2-yl)propylsulfonyl)-9-(pyridin-4-yl)-3,9-diazaspiro[5.5]undecane hydrochloride] | 98 | 97
Cc1cc(C)c(S(=O)(=O)N2CCC[C@@H]2CCCS(=O)(=O)N2CCN(C3CCN(C)CC3)CC2)c(C)c1 [Example 41, (R)-1-(3-(1-(Mesitylsulfonyl)pyrrolidin-2-yl)propylsulfonyl)-4-(1-methylpiperidin-4-yl)piperazine dihydrochloride] | 50 | 7
O=S(=O)(CCC[C@@H]1CCCN1S(=O)(=O)c1ccc(Cl)cc1Cl)N1[C@@H]2CC[C@H]1C[C@H](Oc1ccncc1)C2 [Example 59, (1R,3R,5S)-8-(3-((S)-1-(2,4-Dichlorophenylsulfonyl)pyrrolidin-2-yl)propylsulfonyl)-3-(pyridin-4-yloxy)-8-azabicyclo[3.2.1]octane] | 94 | 96
